Test results reported in PMC6856039 (Investigational New Drugs, 2019).

Tested on: Japanese patients with advanced EGFR mutation-positive NSCLC
Test: Phase I study: dose-limiting toxicities, adverse drug reactions, tolerability
Type: in vivo, human
Procedure: This was an open-label, non-randomized, dose escalation phase I study conducted between December 14, 2015 and July 7, 2016 at 12 centers in Japan. The study was conducted in three phases (dose escalation phase, expansion phase, and extension phase), and the design is shown in Supplementary Fig. 1 (Online Resource 1). […] In patients who received the BID regimen, the administration interval was ≥10 h.
The first phase was the dose escalation phase conducted according to a 3 + 3 design, with a minimum of three patients treated at each dose level. […] The dosing rationale was derived from a 4-weeks repeated oral-dose toxicology study in monkeys. […] If none of the initial three patients treated within a dose level experienced a dose-limiting toxicity (DLT) during Cycle 1, the dose was escalated to the next level. […] If none of the three additional patients experienced DLTs after all of them completed Cycle 1, the dose was escalated to the next level. If at least one of the additional three patients developed a DLT, then the dose escalation was stopped and at least six evaluable patients were enrolled at the previous dose level to establish the maximum tolerated dose (MTD). The maximum dose level was defined as Dose Level 9 (150 mg/day). Based on safety and PK results, the dosing schedule could be changed to a BID regimen.
AEs were evaluated and graded according to the National Cancer Institute Common Terminology Criteria for Adverse Events Version 4.03. DLTs were also evaluated and defined as hematologic toxicity (Grade 4 neutropenia lasting >7 days, Grade 4 thrombocytopenia or Grade 3 thrombocytopenia associated with bleeding and requiring blood transfusion, or febrile neutropenia) or non-hematologic toxicity (Grade ≥3 nausea/vomiting uncontrolled by aggressive antiemetic treatment, Grade ≥3 diarrhea lasting >48 h and unresponsive to treatment, Grade ≥3 aspartate aminotransferase/alanine aminotransferase lasting >7 days, corneal disorder worsening by ≥1 grade, or Grade ≥3 other non-hematological toxicity).

`C=CC(=O)N[C@H]1CCc2c(-c3cnc4ccccc4c3)c3c(N)ncnc3n2C1` [TAS-121] was tested, and the “ALT increased, ≥G3” value (4 mg/day QD, N = 29) was 0 n, the “AST increased, ≥G3” value (4 mg/day QD, N = 29) was 0 n and the “Decreased appetite, any grade” value (4 mg/day QD, N = 29) was 0 n. The “Decreased appetite, ≥G3” value (4 mg/day QD, N = 29) was 0 n, the “Diarrhea, any grade” value (4 mg/day QD, N = 29) was 6 n and the “Diarrhea, ≥G3” value (4 mg/day QD, N = 29) was 0 n. The “Dry skin, ≥G3” value (4 mg/day QD, N = 29) was 0 n, the “Hemoglobin decreased, ≥G3” value (4 mg/day QD, N = 29) was 0 n and the “Hypoalbuminemia, ≥G3” value (4 mg/day QD, N = 29) was 0 n. For the same molecule, the “Malaise, ≥G3” value (4 mg/day QD, N = 29) was 0 n, the “Nausea, ≥G3” value (4 mg/day QD, N = 29) was 0 n and the “Pruritus, ≥G3” value (4 mg/day QD, N = 29) was 0 n. The “Pyrexia, ≥G3” value (4 mg/day QD, N = 29) was 0 n, the “Rash, ≥G3” value (4 mg/day QD, N = 29) was 0 n and the “Stomatitis, ≥G3” value (4 mg/day QD, N = 29) was 0 n. The “Urticaria, ≥G3” value (4 mg/day QD, N = 29) was 0 n, the “Vomiting, ≥G3” value (4 mg/day QD, N = 29) was 0 n and the “WBC decreased, ≥G3” value (4 mg/day QD, N = 29) was 0 n. For the same molecule, the “proportion of patients whose dose was decreased” value (8 mg/day BID (MTD) group, 7/38) was 18.4%, the “proportion of patients whose treatment was interrupted” value (8 mg/day BID (MTD) group, 17/38) was 44.7% and the “incidence of discontinuation due to ADRs” value (8 mg/day BID (MTD), 3/38) was 7.9%. The “AST increased, ≥G3” value (8 mg/day BID, N = 38) was 0 n, the “Decreased appetite, ≥G3” value (8 mg/day BID, N = 38) was 0 n and the “Dry skin, ≥G3” value (8 mg/day BID, N = 38) was 0 n. The “Hypoalbuminemia, ≥G3” value (8 mg/day BID, N = 38) was 0 n, the “Malaise, ≥G3” value (8 mg/day BID, N = 38) was 0 n and the “Nausea, ≥G3” value (8 mg/day BID, N = 38) was 0 n. For the same molecule, the “Other embolic and thrombotic events, ≥G3” value (8 mg/day BID, N = 38) was 0 n, the “Pruritus, ≥G3” value (8 mg/day BID, N = 38) was 0 n and the “Pyrexia, ≥G3” value (8 mg/day BID, N = 38) was 0 n. For the same molecule, the “Stomatitis, ≥G3” value (8 mg/day BID, N = 38) was 0 n, the “WBC decreased, ≥G3” value (8 mg/day BID, N = 38) was 0 n and the “ALT increased, ≥G3” value (8 mg/day QD, N = 38) was 0 n. For the same molecule, the “AST increased, ≥G3” value (8 mg/day QD, N = 38) was 0 n, the “Decreased appetite, ≥G3” value (8 mg/day QD, N = 38) was 0 n and the “Dry skin, ≥G3” value (8 mg/day QD, N = 38) was 0 n. The “Embolic and thrombotic events, any grade” value (8 mg/day QD, N = 38) was 6 n, the “Hypoalbuminemia, ≥G3” value (8 mg/day QD, N = 38) was 0 n and the “Interstitial lung disease, ≥G3” value (8 mg/day QD, N = 38) was 0 n. The “Malaise, ≥G3” value (8 mg/day QD, N = 38) was 0 n, the “Nausea, any grade” value (8 mg/day QD, N = 38) was 5 n and the “Nausea, ≥G3” value (8 mg/day QD, N = 38) was 0 n. For the same molecule, the “Other embolic and thrombotic events, ≥G3” value (8 mg/day QD, N = 38) was 0 n, the “Pruritus, ≥G3” value (8 mg/day QD, N = 38) was 0 n and the “Rash maculo-papular, any grade” value (8 mg/day QD, N = 38) was 11 n. For the same molecule, the “Stomatitis, ≥G3” value (8 mg/day QD, N = 38) was 0 n, the “Urticaria, any grade” value (8 mg/day QD, N = 38) was 5 n and the “Urticaria, ≥G3” value (8 mg/day QD, N = 38) was 0 n. For the same molecule, the “Vomiting, ≥G3” value (8 mg/day QD, N = 38) was 0 n, the “WBC decreased, any grade” value (8 mg/day QD, N = 38) was 5 n and the “WBC decreased, ≥G3” value (8 mg/day QD, N = 38) was 0 n. For the same molecule, the “proportion of patients whose dose was decreased” value (10 mg/day QD (MTD) group, 7/18) was 38.9%, the “proportion of patients whose treatment was interrupted” value (10 mg/day QD (MTD) group, 12/18) was 66.7% and the “incidence of discontinuation due to ADRs” value (10 mg/day QD (MTD), 2/18) was 11.1%. For the same molecule, the “AST increased, ≥G3” value (10 mg/day QD, N = 18) was 0 n, the “Decreased appetite, ≥G3” value (10 mg/day QD, N = 18) was 0 n and the “Diarrhea, ≥G3” value (10 mg/day QD, N = 18) was 0 n. For the same molecule, the “Dry skin, ≥G3” value (10 mg/day QD, N = 18) was 0 n, the “Embolic and thrombotic events, any grade” value (10 mg/day QD, N = 18) was 5 n and the “Hypoalbuminemia, ≥G3” value (10 mg/day QD, N = 18) was 0 n. The “Interstitial lung disease, any grade” value (10 mg/day QD, N = 18) was 0 n, the “Interstitial lung disease, ≥G3” value (10 mg/day QD, N = 18) was 0 n and the “Malaise, ≥G3” value (10 mg/day QD, N = 18) was 0 n. The “Nausea, ≥G3” value (10 mg/day QD, N = 18) was 0 n, the “Platelet count decreased, any grade” value (10 mg/day QD, N = 18) was 12 n and the “Pruritus, ≥G3” value (10 mg/day QD, N = 18) was 0 n. The “Pyrexia, ≥G3” value (10 mg/day QD, N = 18) was 0 n, the “Rash maculo-papular, any grade” value (10 mg/day QD, N = 18) was 0 n and the “Rash maculo-papular, ≥G3” value (10 mg/day QD, N = 18) was 0 n. For the same molecule, the “Stomatitis, ≥G3” value (10 mg/day QD, N = 18) was 0 n, the “Urticaria, any grade” value (10 mg/day QD, N = 18) was 6 n and the “WBC decreased, any grade” value (10 mg/day QD, N = 18) was 0 n. The “WBC decreased, ≥G3” value (10 mg/day QD, N = 18) was 0 n, the “ALT increased, any grade” value (12 mg/day BID, N = 5) was 0 n and the “ALT increased, ≥G3” value (12 mg/day BID, N = 5) was 0 n. The “AST increased, any grade” value (12 mg/day BID, N = 5) was 0 n, the “AST increased, ≥G3” value (12 mg/day BID, N = 5) was 0 n and the “Decreased appetite, ≥G3” value (12 mg/day BID, N = 5) was 0 n. For the same molecule, the “Dermatological toxicity, ≥G3” value (12 mg/day BID, N = 5) was 0 n, the “Dry skin, any grade” value (12 mg/day BID, N = 5) was 0 n and the “Dry skin, ≥G3” value (12 mg/day BID, N = 5) was 0 n. The “Embolic and thrombotic events, any grade” value (12 mg/day BID, N = 5) was 0 n, the “Embolic and thrombotic events, ≥G3” value (12 mg/day BID, N = 5) was 0 n and the “Hypoalbuminemia, ≥G3” value (12 mg/day BID, N = 5) was 0 n. For the same molecule, the “Malaise, ≥G3” value (12 mg/day BID, N = 5) was 0 n, the “Nausea, ≥G3” value (12 mg/day BID, N = 5) was 0 n and the “Other embolic and thrombotic events, any grade” value (12 mg/day BID, N = 5) was 0 n. The “Other embolic and thrombotic events, ≥G3” value (12 mg/day BID, N = 5) was 0 n, the “Pruritus, any grade” value (12 mg/day BID, N = 5) was 0 n and the “Pruritus, ≥G3” value (12 mg/day BID, N = 5) was 0 n. The “Pulmonary embolism, any grade” value (12 mg/day BID, N = 5) was 0 n, the “Pulmonary embolism, ≥G3” value (12 mg/day BID, N = 5) was 0 n and the “Pyrexia, ≥G3” value (12 mg/day BID, N = 5) was 0 n. The “Rash maculo-papular, ≥G3” value (12 mg/day BID, N = 5) was 0 n, the “Rash, ≥G3” value (12 mg/day BID, N = 5) was 0 n and the “Stomatitis, ≥G3” value (12 mg/day BID, N = 5) was 0 n.
